Series [1] relates to αvβ5 expressing MDA-MB-231 breast cancer cells. Kind of series: Competitive cell-adhesion inhibition assay to vitronectin, MDA-MB-231. The note with it: n = 5 ± SEM, read-out: In cellulo IC50 MDA-MB-231. Format: cell-based, human. How it is done:
To validate our in vitro data and determine the efficacy of the peptides against the pro-angiogenic integrins in a complex cellular milieu, we subjected the peptides to a competitive cell-adhesion assay (Table 1) utilizing MDA-MB-231 human breast cancer cells expressing αvβ5 integrins, and U-87 MG human glioblastoma cells expressing αvβ3, αvβ5 and α5β1 integrins.[27] […] On the other hand, we observed a remarkable correlation between the in vitro affinity of the thioamidated peptides against the purified integrins and their efficacy in cellulo (αvβ5 with MDA-MB-231, and αvβ3 and αvβ5 with U-87 MG). […]
(§1) Cell adhesion inhibition assay […]
(§2) incubated with 0.5% crystal violet for 15 min. Cells were then washed thoroughly with PBS buffer to remove excess of crystal violet. Finally dye was eluted out and dissolved using DMSO and quantification was done at 570 nm. […]
(§3) was dispensed and 5% FBS containing media was added. […]

Series [2] deals with αvβ3, αvβ5 and α5β1 expressing U-87 MG glioblastoma cells. Description: Competitive cell-adhesion inhibition assay to vitronectin, U-87 MG. Conditions: n = 5 ± SEM, read-out: In cellulo IC50 U-87 MG. The class given is cell-based, human. How it is done:
To validate our in vitro data and determine the efficacy of the peptides against the pro-angiogenic integrins in a complex cellular milieu, we subjected the peptides to a competitive cell-adhesion assay (Table 1) utilizing MDA-MB-231 human breast cancer cells expressing αvβ5 integrins, and U-87 MG human glioblastoma cells expressing αvβ3, αvβ5 and α5β1 integrins.[27] […]
as §1, §2, §3

For series [3], the target named is T1, αvβ3 integrin (Homo sapiens, UniProt P05106+P06756).
T1 construct: purchased Millipore
Description: Competitive solid-phase integrin binding assay (ELISA), vitronectin-αvβ3. How it is done: (§4) The initial structure was obtained by following a simulated annealing protocol. […] For the structure of 7-11 (including 9a-9d) explicit solvent box of H2O was used with periodic boundary conditions. A 2 ns restrained molecular dynamics run was then performed. The average conformation over the dynamics run was considered to be the final structure. Competitive solid-phase integrin binding assay The activity of peptide as integrin antagonist was assessed using solid phase integrin binding assay. Following buffers were prepared freshly. […] 96-well plate reader at 492 nm. […] Post-blocking and washing peptides were mixed with biotinylated vitronectin and this mixure was then incubated with coated plates for 2h at room temperature. […] After washing S6
On the technique in general: An ELISA detects its analyte on a solid surface through an enzyme-linked reagent.

Series [4] deals with T2, αvβ5 integrin (Homo sapiens, UniProt P06756+P18084).
T2 construct: purchased Millipore
Kind of series: Competitive solid-phase integrin binding assay (ELISA), vitronectin-αvβ5. The note with it: purified integrin, n = 5 ± SEM, read-out: In vitro IC50 αvβ5. The protocol: as §4

Series [5] addresses T3, αIIbβ3 integrin (Homo sapiens, UniProt P05106+P08514).
T3 construct: purchased Millipore
Kind of series: Competitive solid-phase integrin binding assay (ELISA), fibrinogen-αIIbβ3. Conditions: purified integrin, n = 5 ± SEM, read-out: In vitro IC50 αIIbβ3. The protocol:
The inhibitory potency of the peptides to block the association between the extracellular matrix and the integrins overexpressed on cell-surfaces was determined using an in vitro competitive solid phase binding assay.[25] We assessed the affinity of these peptides against the pro-angiogenic αvβ3, αvβ5 and α5β1 integrins, and their selectivity against their αIIbβ3 integrin, which plays an important role in platelet aggregation (Table 1).[26]
integrin was incubated for 1h at room temperature. After washing 1:250 diluted CD41b
antibody was incubated for 1h at room temperature. Anti-mouse IgG-peroxidase antibody
was used as secondary antibody. Binding was visualized using TMB substrate. […]

The target in series [6] is T4, α5β1 integrin (Homo sapiens, UniProt P05556+P08648).
T4 construct: purchased Millipore
Description: Competitive solid-phase integrin binding assay (ELISA), fibronectin-α5β1. The note with it: purified integrin, n = 5 ± SEM, read-out: In vitro IC50 α5β1. The protocol: as §4, with “Binding” for “Post-blocking and washing peptides were mixed with biotinylated vitronectin and this mixure”, “visualized using TMB substrate.” for “then incubated with coated plates for 2h at room temperature.”, “S7” for “After washing S6”

Series [7] is described as follows: Ex vivo serum stability assay. The note with it: human serum ex vivo.
Where [8] appears, read: competitive ELISA, purified integrin, n = 5 ± SEM, read-out: In vitro IC50 αvβ3.
Setting [9] is: from experimental IC50, read-out: pIC50 against αvβ3, Table S22 (converted).

Read-outs that look alike come from different tables or passages of the source.

Turning to `CC(C)[C@@H]1NC(=S)[C@@H](Cc2ccccc2)NC(=O)[C@H](CC(=O)O)NC(=O)CNC(=O)[C@H](CCCNC(=N)N)NC1=O` [Compound 7], the IC50 was 4 ± 2 nM in series [1]; 326 ± 97 nM in series [2]; 372 ± 52 nM in series [3] (setting [8]); 0.7 ± 0.2 nM in series [4]; above 10000 nM in series [5]; 1.3 ± 0.6 nM in series [6].
`CC(C)[C@@H]1NC(=O)[C@@H](Cc2ccccc2)NC(=O)[C@H](CC(=O)O)NC(=S)CNC(=O)[C@H](CCCNC(=N)N)NC1=O` [Compound 10]: the IC50 in series [1] was above 100000 nM; in series [2], above 100000 nM; in series [3] (setting [8]), 252 ± 200 nM; in series [4], above 100000 nM; in series [5], above 100000 nM; in series [6] it was above 100000 nM.
With `CC(C)[C@H]1NC(=O)[C@H](Cc2ccccc2)NC(=O)[C@H](CC(=O)O)NC(=S)CNC(=O)[C@H](CCCNC(=N)N)NC1=O` [Compound 9d], the IC50 was above 100000 nM in series [1]; above 100000 nM in series [2]; 584 ± 504 nM in series [3] (setting [8]); above 10000 nM in series [4]; above 100000 nM in series [5]; 104 ± 95 nM in series [6].
Take `CC(C)[C@@H]1NC(=O)[C@H](Cc2ccccc2)NC(=S)[C@H](CC(=O)O)NC(=O)CNC(=O)[C@@H](CCCNC(=N)N)NC1=O` [Compound 9c]: the IC50 in series [1] is above 100000 nM; in series [2], above 100000 nM; in series [3] (setting [8]), above 100000 nM; in series [4], above 10000 nM; in series [5], above 100000 nM; in series [6] it was 461 ± 246 nM.
In the case of `CC(C)[C@@H]1NC(=O)[C@H](Cc2ccccc2)NC(=O)[C@@H](CC(=O)O)NC(=O)CNC(=O)[C@H](CCCNC(=N)N)NC1=S` [Compound 9a], the IC50 in series [1] amounted to 11 ± 9 nM; in series [2], 40 ± 28 nM.
Consider `CC(C)[C@@H]1NC(=O)[C@H](Cc2ccccc2)NC(=O)[C@H](CC(=O)O)NC(=O)CNC(=O)[C@H](CCCNC(=N)N)NC1=O` [Compound 12, cyclo(RGDFV)], for which the IC50 in series [1] and in series [2] was above 100000 nM each time.
Turning to `CC(C)[C@@H]1NC(=O)[C@@H](Cc2ccccc2)NC(=S)[C@H](CC(=O)O)NC(=O)CNC(=O)[C@H](CCCNC(=N)N)NC1=O` [Compound 11], the IC50 in series [1] is 4.2 ± 4 nM; in series [2] it was 96 ± 77 nM; in series [3] (setting [8]), 72 ± 63 nM; in series [4] it was 1.3 ± 1 nM; in series [5], above 100000 nM; in series [6], 62 ± 45 nM. The “Fraction of peptide intact at 72 h” value in series [7] is given as 1/4.
With `CC(C)[C@@H]1NC(=S)[C@H](Cc2ccccc2)NC(=O)[C@H](CC(=O)O)NC(=O)CNC(=O)[C@H](CCCNC(=N)N)NC1=O` [Compound 9b], the IC50 in series [1] is 1 ± 0.1 nM; in series [2] it was 1.6 ± 0.6 nM; in series [3] (setting [8]), 0.2 ± 0.1 nM; in series [3] (setting [9]) it was 0.2 nM; in series [4], 1.6 ± 0.3 nM; in series [5], above 100000 nM. In series [6], the IC50 worked out at 2 ± 0.4 nM. Also, the “Fold difference in αvβ3 affinity” value in series [3] (9b versus 7 (differ only in chirality of Phe)) is reported as > 10^3 fold. In addition, the “Fold enhancement of affinity and efficacy in comparison to 9” value in series [3] (9b versus 9, pro-angiogenic integrins) is reported as ~10^5 fold. The “Fraction of peptide intact at 72 h” value in series [7] was 1/4.
On to `CC(C)[C@@H]1NC(=O)[C@@H](Cc2ccccc2)NC(=O)[C@H](CC(=O)O)NC(=O)CNC(=S)[C@H](CCCNC(=N)N)NC1=O` [Compound 9], for which the IC50 in series [1] is above 100000 nM; in series [2], above 100000 nM; in series [3] (setting [8]) it was above 100000 nM; in series [3] (setting [9]) it was above 100000 nM; in series [4], above 10000 nM; in series [5], above 10000 nM. In addition, the IC50 in series [6] was found to be 53 ± 42 nM.
